From ChEMBL document CHEMBL1201862, “PubChem BioAssay data set” (2004)
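Five compound concentrations were applied to cells in 96-well plates for 48 hours; endpoints were derived by simple linear interpolation of the resulting dose-response curve. At the GI50, growth is halved.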 Active and inactive are the calls of the source. No stated cut-off is given here; in the data, active = GI50 up to about 1.1 µM and inactive = higher.

How the values were obtained:
Assay in all cases: NCI anticancer screen, dose series, 48 h
[1] = test system: KM12
[2] = test system: OVCAR-5
[3] = test system: A549
[4] = test system: RPMI-8226
[5] = test system: NCI-H522
[6] = test system: SK-MEL-5
[7] = test system: IGROV-1
[8] = test system: UACC-62
[9] = test system: COLO 205
[10] = test system: U-251
[11] = test system: EKVX
[12] = test system: OVCAR-8
[13] = test system: HT-29
[14] = test system: SK-MEL-28
[15] = test system: SF-539
[16] = test system: NCI-H226
[17] = test system: SK-OV-3
[18] = test system: UACC-257

Structure (SMILES) | GI50 [1] | GI50 [2] | GI50 [3] | GI50 [4] | GI50 [5] | GI50 [6] | GI50 [7] | GI50 [8] | GI50 [9] | GI50 [10] | GI50 [11] | GI50 [12] | GI50 [13] | GI50 [14] | GI50 [15] | GI50 [16] | GI50 [17] | GI50 [18]
COC(=O)[C@]12CSCN1C(=O)C(C(C)=O)=NN2C(=O)[C@](OC)(c1ccccc1)C(F)(F)F | > 100 µM (inactive) | > 100 µM (inactive) | > 100 µM (inactive) | > 100 µM (inactive) | 88.7 µM (inactive) | > 100 µM (inactive) | > 100 µM (inactive) | > 100 µM (inactive) | > 100 µM (inactive) | > 100 µM (inactive) | > 100 µM (inactive) | > 100 µM (inactive) | > 100 µM (inactive) | > 100 µM (inactive) | > 100 µM (inactive) | 88.9 µM (inactive) | – | –
CN1C(c2ccccc2)CC(O)CC1c1ccccc1 (stereo unspecified) | > 100 µM (inactive) | > 100 µM (inactive) | > 100 µM (inactive) | > 100 µM (inactive) | > 100 µM (inactive) | > 100 µM (inactive) | > 100 µM (inactive) | > 100 µM (inactive) | > 100 µM (inactive) | > 100 µM (inactive) | > 100 µM (inactive) | > 100 µM (inactive) | > 100 µM (inactive) | > 100 µM (inactive) | > 100 µM (inactive) | > 100 µM (inactive) | > 100 µM (inactive) | > 100 µM (inactive)
CCOC(=O)C(=O)Nc1c(N(CC)CC)n2ccccc2nc1=O | > 100 µM (inactive) | > 100 µM (inactive) | > 100 µM (inactive) | > 100 µM (inactive) | > 100 µM (inactive) | > 100 µM (inactive) | > 100 µM (inactive) | > 100 µM (inactive) | > 100 µM (inactive) | > 100 µM (inactive) | > 100 µM (inactive) | > 100 µM (inactive) | > 100 µM (inactive) | – | > 100 µM (inactive) | > 100 µM (inactive) | > 100 µM (inactive) | –
COC(=O)/C(=C/c1ccc(OC)cc1)C(C(=O)O)=C1CCCCC1 | > 100 µM (inactive) | > 100 µM (inactive) | > 100 µM (inactive) | > 100 µM (inactive) | > 100 µM (inactive) | > 100 µM (inactive) | > 100 µM (inactive) | > 100 µM (inactive) | > 100 µM (inactive) | > 100 µM (inactive) | > 100 µM (inactive) | > 100 µM (inactive) | > 100 µM (inactive) | – | > 100 µM (inactive) | > 100 µM (inactive) | > 100 µM (inactive) | > 100 µM (inactive)
CN(C)/C=N\c1cc[nH]c(=O)n1 | > 100 µM (inactive) | > 100 µM (inactive) | > 100 µM (inactive) | > 100 µM (inactive) | > 100 µM (inactive) | > 100 µM (inactive) | > 100 µM (inactive) | > 100 µM (inactive) | > 100 µM (inactive) | > 100 µM (inactive) | > 100 µM (inactive) | > 100 µM (inactive) | > 100 µM (inactive) | > 100 µM (inactive) | > 100 µM (inactive) | > 100 µM (inactive) | > 100 µM (inactive) | > 100 µM (inactive)
CC(=O)O[C@H]1C(=O)[C@@]2(C)C(C(OC(=O)c3ccccc3)[C@]3(O)CC(OC(=O)C(O)C(NC(=O)c4ccc(C)cc4)c4ccccc4)C(C)=C1C3(C)C)[C@]1(OC(C)=O)CO[C@@H]1C[C@@H]2O (stereo partly specified) | < 0.0025 µM (active) | 0.00743 µM (active) | 0.00504 µM (active) | < 0.0025 µM (active) | < 0.0025 µM (active) | 0.00402 µM (active) | < 0.0025 µM (active) | 0.0199 µM (active) | < 0.0025 µM (active) | 0.00315 µM (active) | 0.111 µM (active) | 0.00426 µM (active) | < 0.0025 µM (active) | – | < 0.0025 µM (active) | – | < 0.0025 µM (active) | 0.00708 µM (active)
